Data set [1] concerns RnH9c2 cells. As to the kind of experiment: Trypanosoma cruzi intracellular assay (Assay 2), host cell cytotoxicity. It counts as cell-based. To be noted: rat, H9C2 cardiomyocytes infected with Trypanosoma cruzi, 72 h incubation, read-out: cytotoxicity against RnH9c2 cells, pEC50 (converted). The procedure:
Compounds were dispensed into black 384-well assay plates (Greiner) by acoustic dispensing (LabCyte ECHO). For potency determinations, eleven-point, one in three dilution curves were generated, with a top concentration of 50 μM. H9C2 rat cardiomyocytes cells were dispensed in T225 tissue culture flasks and after 4 hours they were infected during 18 hours with T. cruzi trypomastigotes in the same T225 tissue culture flasks at a multiplicity of infection of 1. Next, any remaining free trypomastigotes were washed away with PBS and the infected H9C2 cells were harvested by trypsinisation. The infected H9C2 cells were then plated into 384-well plates containing the compounds to be tested, at 2500 cells per well in DMEM media with 2% FBS, 1% Penicillin/Streptomicin, 2 mM L-Glutamine, 1 mM Na Pyruvate and 25 mM HEPES. After 72 h incubation at 37° C. in presence of 5% CO2, the plates were fixed and stained with 4% formaldehyde and 2 μM Draq5 for 3 hours at room temperature. The plates were imaged on a Perkin Elmer Opera high-content imaging system using a 20× air objective. Images were analyzed using the Acapella building blocks system (Perkin Elmer). The image analysis algorithm first identified the H9C2 nuclei followed by demarcation of the cytoplasm and identification of intracellular amastigotes. This algorithm reported mean number of parasites per H9C2 cell, the percentage of infected H9C2 cells and the total number of H9C2 cells.

Data set [2] is described as follows: Solubility assay, ChemiLuminescent Nitrogen Detection (CLND) (Assay 4). Type of data set: physicochemical. The note with it: phosphate buffered saline (PBS) pH 7.4, aqueous buffer, kinetic from dmso stock, PBS pH 7.4, from 10 mM DMSO stock, 1 h at room temperature. Here is the method: Assay 4. Solubility Assay—ChemiLuminescent Nitrogen Detection (CLND) I. Compounds A 10 mM DMSO stock solution of the compound was prepared. Solvents and Buffers Organic solvents of HPLC grade were used. Ultra pure water (Milli-Q grade) was used. Buffers were prepared with ultra pure water and filtered using 0.45μ cameo filters. Aqueous Buffer Solution: Phosphate Buffer Saline (PBS) @ pH 7.4 was prepared from Sigma dry powder packs, P-3813. Each one was diluted to 1 liter with deionised water. The pH was checked before the solution was used II. Procedures. • a) DMSO concentration was measured. DMSO blanks and ondansetron and caffeine standards were added to the plate (column 12, A, B, C, & D for the blanks and E, F, G, & H for the standards). Plates were covered with foil. When the UV and CLND detectors baselines appeared to be stable, the CLND was zeroed. • b) Once DMSO concentration measurements were complete, a filtration plate was prepared from each parent plate by diluting 5 μl of the 10 mM DMSO stock solution to […] with pH7.4 PBS. • c) After the plates were prepared, they were covered with a plate lid and left to incubate for 1 h at room temperature. • d) Sample was filtered using MILLIPORE MultiScreen Solubility (MSSLBPC10) Filtration Plates, to NUNC V well plates. […]

Data set [3] has as its system Leishmania donovani. As to the kind of experiment: Leishmania donovani intracellular assay (Assay 5). Type of data set: cell-based. To be noted: THP-1, 96 h, eGFP amastigotes in THP-1 cells, 96 h incubation, read-out: pEC50 value against Leishmania donovani (converted). A digest of the protocol:
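PMA-differentiated (30 nM) THP-1 monocytes were infected with eGFP-expressing L. donovani amastigotes at an MOI of 10, then plated at 3000 cells/well in RPMI with 2% FBS. Cells were exposed for 96 h at 37° C to 11-point 1:3 dilutions from a 50 μM top. After fixation and DAPI staining, high-content imaging gave parasites per cell, % infected cells and total THP-1 count.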

Data set [4] concerns THP-1 cells. As to the kind of experiment: Leishmania donovani intracellular assay (Assay 5), THP-1 cytotoxicity. Type of data set: cell-based. To be noted: human, 96 h incubation, read-out: cytotoxicity against THP-1 cells, pEC50 (converted). The procedure:
Assay 5. Leishmania donovani Intracellular Assay
Compounds were dispensed into black 384-well assay plates (Greiner) by acoustic dispensing (LabCyte ECHO). For potency determinations, eleven-point, one in three dilution curves were generated, with a top concentration of 50 μM. THP-1 human monocytes cells were dispensed in T225 tissue culture flasks and differentiated using 30 nM of PMA, after 24 hours they were infected overnight using Leishmania donovani expressing Green Fluorescent Protein (eGFP) amastigotes in the same T225 tissue culture flasks at a multiplicity of infection of 10. Next, any remaining free amastigotes were washed away with PBS and the infected THP-1 cells were harvested by trypsinisation. The infected cells were then plated into 384-well plates containing the compounds to be tested, at 3000 cells per well in RPMI media with 2% FBS and 25 mM Sodium bicarbonate. After 96 h incubation at 37° C. in presence of 5% CO2, the plates were fixed with 4% formaldehyde for 30 minutes, washed with PBS and stained with 0.1 mg/mL of DAPI for 30 minutes and washed again with PBS. The plates were imaged on a Perkin Elmer Opera high-content imaging system using a 20× air objective with two expositions, one for DAPI stain and other for eGFP. Images were analysed using the Acapella building blocks system (Perkin Elmer). The image analysis algorithm first identified the THP-1 nuclei followed by demarcation of the cytoplasm and identification of intracellular amastigotes. This algorithm reported mean number of parasites per THP-1 cell, the percentage of infected THP-1 cells and the total number of THP-1 cells.

Structures are written as SMILES.

As a reminder, the solubility is how much of the substance goes into solution per volume. Regarding `COc1cccc(-c2cnc3nc(-c4cc(NC(=O)N5CCCC5)ccc4F)ccn23)n1.Cl` [Example 28, N-(4-fluoro-3-(3-(6-methoxypyridin-2-yl)imidazo[1,2-a]pyrimidin-7-yl)phenyl)pyrrolidine-1-carboxamide], the EC50 at 72 h in data set [1] was 7.94 µM. Moreover, the solubility at 1 h in data set [2] is less than 1 µM. In addition, the EC50 in data set [3] was 0.126 to 10 µM. Further, the EC50 at 96 h in data set [4] is 12.6 to 50.1 µM.

The record behind these values is US10479792B2, “Compounds” (GlaxoSmithKline Intellectual Property Development Limited, priority 2015, dated 2019).
